pEC50: −log10 of the molar value.
These molecules were tested on ATF4 luciferase reporter in HEK293T cells (assay: ATF4-Luc assay (ATF4 luciferase reporter, tunicamycin-treated HEK293T cells)). Conditions: Homo sapiens, HEK-293T; HEK293T cells carrying the ATF4 luciferase reporter, 1 μg/mL tunicamycin, 7 hours.
Format: cell-based, human

SMILES | pEC50
CC(=O)c1ccc(OCC(=O)NC23CC(NC(=O)COc4ccc(Cl)c(F)c4)(C2)C3)cn1 [Compound 235, 2-[(6-acetylpyridin-3-yl)oxy]-N-{3-[2-(4-chloro-3-fluorophenoxy)acetamido]0-bicyclo[1.1.1]pentan-1-yl}acetamide] | 6.60 to 7.30
O=C(COc1ccc(Cl)c(F)c1)NC12CCC(NC(=O)COc3ccnn(CC(F)(F)F)c3=O)(CC1)C(O)C2 (centres unmarked) [Compound 333, 2-(4-chloro-3-fluorophenoxy)-N-[3-hydroxy-4-(2-{[3-oxo-2-(2,2,2-trifluoroethyl)-2,3-dihydropyridazin-4-yl]oxy}acetamido)bicyclo[2.2.2]octan-1-yl]acetamide] | 6.30 to 6.60
CS(=O)(=O)c1ccc(OCC(=O)NC23CC(NC(=O)COc4ccc(Cl)c(F)c4)(C2)C3)cc1 [Compound 127, 2-(4-chloro-3-fluorophenoxy)-N-(3-{2-[4-(methanesulfonyl)-phenoxy]acetamido}-bicyclo[1.1.1]pentan-1-yl)acetamide] | 5.70 to 6.30
O=C(COc1ccc(Cl)c(F)c1)NC12CCC(NC(=O)Cc3ccc(C(F)(F)F)cc3)(CC1)C(O)C2 (centres unmarked) [Compound 322, 2-(4-chloro-3-fluorophenoxy)-N-(3-hydroxy-4-{2-[4-(trifluoromethyl)phenyl]acetamido}bicyclo[2.2.2]octan-1-yl)acetamide] | 6.60 to 7.30
O=C(COc1ccc(F)cc1)NC12CCC(NC(=O)COc3ccc(Cl)c(F)c3)(CC1)[C@@H](O)C2 [Compound 619, 2-(4-chloro-3-fluorophenoxy)-N-{(2S)-4-[2-(4-fluorophenoxy)acetamido]-2-hydroxybicyclo[2.2.2]octan-1-yl}acetamide] | > 8.00
O=C(COc1ccc(Cl)c(F)c1)NC12CCC(NC(=O)COc3ccnc(C(F)(F)F)c3)(CC1)[C@H](O)C2 (single isomer, unassigned) [Compound 318] | 7.30 to 8.00
O=C(COc1ccc(Cl)c(F)c1)NC12CCC(NC(=O)OCc3ccccc3)(C1)C2 [Compound 180, benzyl {4-[2-(4-chloro-3-fluorophenoxy)acetamido]bicyclo[2.1.1]hexan-1-yl}carbamate] | 6.60 to 7.30
CC(=O)c1ccc(OCC(=O)NC23CCC(NC(=O)COc4ccc(Cl)c(F)c4)(CC2)[C@@H](O)C3)cc1 [Compound 524, 2-(4-acetylphenoxy)-N-{(3S)-4-[2-(4-chloro-3-fluorophenoxy)acetamido]-3-hydroxybicyclo[2.2.2]octan-1-yl}acetamide] | 7.30 to 8.00
O=C(COc1ccc(Cl)c(F)c1)NC12CC(NS(=O)(=O)Cc3cccc(C(F)(F)F)c3)(C1)C2 [Compound 428, 2-(4-chloro-3-fluorophenoxy)-N-[3-({[3-(trifluoromethyl)phenyl]methanesulfonyl}amino)bicyclo[1.1.1]pentan-1-yl]acetamide] | 5.70 to 6.30
CC(C)(C)OC(=O)CN(CCOc1ccc(Cl)c(F)c1)C12CC(NC(=O)COc3ccc(Cl)c(F)c3)(C1)C2 [Compound 688, tert-butyl ({3-[2-(4-chloro-3-fluorophenoxy)acetamido]bicyclo[1.1.1]pentan-1-yl}[2-(4-chloro-3-fluorophenoxy)ethyl]amino)acetate] | 6.60 to 7.30
COc1cc(OCC(=O)NC23CCC(NC(=O)COc4ccc(Cl)c(F)c4)(CC2)[C@@H](O)C3)ccc1F [Compound 794, 2-(4-chloro-3-fluorophenoxy)-N-{(2S)-4-[2-(4-fluoro-3-methoxyphenoxy)acetamido]-2-hydroxybicyclo[2.2.2]octan-1-yl}acetamide] | > 8.00
O=C(COc1ccc(Cl)c(F)c1)NC12CCC(NC(=O)COc3ccc(C(F)(F)F)nc3)(CC1)C(F)C2 (centres unmarked) [Compound 366, 2-(4-chloro-3-fluorophenoxy)-N-[3-fluoro-4-(2-{[6-(trifluoromethyl)pyridin-3-yl]oxy}acetamido)bicyclo[2.2.2]octan-1-yl]acetamide] | 7.30 to 8.00
O=C(COc1ccc2c(c1)OC(F)(F)O2)NC12CC(NC(=O)COc3cnc(C(F)F)cn3)(C1)C2 [Compound 383, 2-[(2,2-difluoro-2H-1,3-benzodioxol-5-yl)oxy]-N-[3-(2-{[5-(difluoromethyl)pyrazin-2-yl]oxy}acetamido)bicyclo[1.1.1]pentan-1-yl]acetamide] | < 5.70
O=C(COc1ccc(Cl)c(C(=O)O)c1)NC12CCC(NC(=O)COc3ccc(Cl)c(C(=O)O)c3)(CC1)[C@@H](O)C2 [Compound 593, 3,3′-{[(2S)-2-hydroxybicyclo[2.2.2]octane-1,4-diyl]bis[azanediyl(2-oxoethane-2,1-diyl)oxy]}bis(6-chlorobenzoic acid)] | < 5.70
N#Cc1cc(OCC(=O)NC23CC(NC(=O)COc4ccc(Cl)c(F)c4)(C2)C3)ccn1 [Compound 277, 2-(4-chloro-3-fluorophenoxy)-N-(3-{2-[(2-cyanopyridin-4-yl)oxy]acetamido}bicyclo[1.1.1]pentan-1-yl)acetamide] | 6.30 to 6.60
Cc1cc(OCC(=O)NC23CCC(NC(=O)COc4ccc(F)c(F)c4)(CC2)[C@@H](O)C3)ccc1F [Compound 815, 2-(3,4-difluorophenoxy)-N-{(2S)-4-[2-(4-fluoro-3-methylphenoxy)acetamido]-2-hydroxybicyclo[2.2.2]octan-1-yl}acetamide] | > 8.00

SMILES | pEC50
O=C(COc1ccc(Cl)c(F)c1)NC12CCC(NC(=O)COc3ccc(Cl)c(F)c3)(C[C@H]1O)[C@@H](O)C2 (racemic) [Compound 557, rac-N,N′-[(2R,5S)-2,5-dihydroxybicyclo[2.2.2]octane-1,4-diyl]bis[2-(4-chloro-3-fluorophenoxy)acetamide]] | > 8.00
O=C(/C=C/c1ccc(C(F)(F)F)cc1)NC12CC(NC(=O)COc3ccc(Cl)c(F)c3)(C1)C2 [Compound 346, (2E)-N-{3-[2-(4-chloro-3-fluorophenoxy)acetamido]bicyclo[1.1.1]pentan-1-yl}-3-[4-(trifluoromethyl)phenyl]prop-2-enamide] | 6.60 to 7.30
O=C(COc1cccc(Cl)c1)NC12CC(NC(=O)COc3ccc(Cl)c(F)c3)(C1)C2 [Compound 146, 2-(4-chloro-3-fluorophenoxy)-N-{3-{2-(3-chlorophenoxy)acetamido}-bicyclo[1.1.1]pentan-1-yl}acetamide] | > 8.00
O=C(COc1ccc(Cl)c(Cl)c1)NC12CCC(NC(=O)COc3cc(F)c4cn[nH]c4c3)(C1)C2 [Compound 195, 2-(3,4-dichlorophenoxy)-N-(4-{2-[(4-fluoro-1H-indazol-6-yl)oxy]acetamido}-bicyclo[2.1.1]hexan-1-yl)acetamide] | 7.30 to 8.00
O=C(COc1cccc(F)c1)NC12CC(NC(=O)COc3ccc(Cl)c(F)c3)(C1)C2 [Compound 410, 2-(4-chloro-3-fluorophenoxy)-N-{3-[2-(3-fluorophenoxy)acetamido]bicyclo[1.1.1]pentan-1-yl}acetamide] | > 8.00
O=C(COc1ccc(Cl)c(F)c1)NC12CC(NC(=O)Cc3ccc(C(F)(F)F)cc3)(C1)C2 [Compound 341, 2-(4-chloro-3-fluorophenoxy)-N-(3-{2-[4-(trifluoromethyl)phenyl]acetamido}bicyclo[1.1.1]pentan-1-yl)acetamide] | 6.60 to 7.30
CN(CC(=O)NC12CC(NC(=O)COc3ccc(Cl)c(F)c3)(C1)C2)c1ccc(Cl)cc1 [Compound 201, N-{3-[2-(4-chloro-3-fluorophenoxy)acetamido]bicyclo[1.1.1]pentan-1-yl}-N^2-(4-chlorophenyl)-N^2-methylglycinamide] | 5.70 to 6.30
O=C(COc1ccc(F)cc1)NC12CC(NC(=O)COc3ccc(Cl)c(Cl)c3)(C1)C2 [Compound 532, 2-(3,4-dichlorophenoxy)-N-{3-[2-(4-fluorophenoxy)acetamido]bicyclo[1.1.1]pentan-1-yl}acetamide] | > 8.00
O=C(COc1ccc(Cl)c(F)c1)NC12CCC(NC(=O)COc3ccc(Cl)c(F)c3)(CC1)[C@@H](c1nn[nH]n1)C2 [Compound 419, N,N′-[(2S)-2-(2H-tetrazol-5-yl)bicyclo[2.2.2]octane-1,4-diyl]bis[2-(4-chloro-3-fluorophenoxy)acetamide]] | 6.60 to 7.30
O=C(COc1ccc(F)c(F)c1)NC12CCC(NC(=O)COc3ccc(Cl)c(Cl)c3)(CC1)C(=O)N2 [Compound 680, 2-(3,4-dichlorophenoxy)-N-{1-[2-(3,4-difluorophenoxy)acetamido]-3-oxo-2-azabicyclo[2.2.2]octan-4-yl}acetamide] | > 8.00
O=C(COc1ccc(Cl)c(F)c1)NC12CCC(NC(=O)COc3ccc(C(F)(F)F)c(F)c3)(CC1)[C@@H](O)C2 [Compound 832, 2-(4-chloro-3-fluorophenoxy)-N-[(3S)-4-{2-[3-fluoro-4-(trifluoromethyl)phenoxy]acetamido}-3-hydroxybicyclo[2.2.2]octan-1-yl]acetamide] | > 8.00
O=C(COc1ccc2ccccc2c1)NC12CCC(NC(=O)COc3ccc(Cl)c(F)c3)(CC1)[C@@H](O)C2 [Compound 472, 2-(4-chloro-3-fluorophenoxy)-N-[(2S)-2-hydroxy-4-{2-[(naphthalen-2-yl)oxy]acetamido}bicyclo[2.2.2]octan-1-yl]acetamide] | > 8.00
COc1cccc(OCC(=O)NC23CCC(NC(=O)COc4ccc(Cl)c(F)c4)(CC2)[C@@H](O)C3)n1 [Compound 792, 2-(4-chloro-3-fluorophenoxy)-N-[(2S)-2-hydroxy-4-{2-[(6-methoxypyridin-2-yl)oxy]acetamido}bicyclo[2.2.2]octan-1-yl]acetamide] | > 8.00
O=C(Cc1ccc(C(F)(F)F)cn1)NC12CCC(NC(=O)COc3ccc(Cl)c(F)c3)(CC1)C(O)C2 (centres unmarked) [Compound 356, 2-(4-chloro-3-fluorophenoxy)-N-(2-hydroxy-4-{2-[5-(trifluoromethyl)pyridin-2-yl]acetamido}bicyclo[2.2.2]octan-1-yl)acetamide] | 7.30 to 8.00
O=C(COc1ccc(Cl)c(F)c1)NC12CCC(NCc3nc4cc(F)c(F)cc4[nH]3)(CC1)C[C@@H]2O [Compound 648, 2-(4-chloro-3-fluorophenoxy)-N-[(2S)-4-{[(5,6-difluoro-1H-benzimidazol-2-yl)methyl]amino}-2-hydroxybicyclo[2.2.2]octan-1-yl]acetamide] | 7.30 to 8.00
O=C(COc1ccc(Cl)c(F)c1)NC12CC(NC(=O)[C@@H](O)c3ccc(Cl)cc3)(C1)C2 [Compound 307, (2S)—N-{3-[2-(4-chloro-3-fluorophenoxy)acetamido]bicyclo[1.1.1]pentan-1-yl}-2-(4-chlorophenyl)-2-hydroxyacetamide] | < 5.70
